Data reported in patent US20110218170A1, “USE OF 2'-DEOXY-4'-THIOCYTIDINE AND ITS ANALOGUES AS DNA HYPOMETHYLATING ANTICANCER AGENTS” (Southern Research Institute, priority 2010, published 2011).
Read-outs that look alike come from different tables or passages of the source.

Columns and labels:
DNMT1 = DNMT1 protein levels by western blot in drug-treated KG1a cells; format: cell-based, human
Procedure: Cells were incubated with drugs for the indicated times and analyzed by western blot. (*ns indicates a non-specific band used as a loading control).

[1] = Stability in phosphate buffered saline by reverse phase HPLC (FIG. 4); format: physicochemical; conditions: PBS pH 7.4, 100 μM; for half-life at 100 μM: phosphate buffered saline, samples at 2, 20 and 90 hours
Procedure: One of the primary problems of the currently clinically used DNA hypomethylators 5-aza-dCyd and 5-azacytidine is the rapid degradation of these compounds by ring opening of the 5-azacytosine ring in aqueous solutions. Whether a 4′-thio modification would enhance the stability of 5-azacytosine relative to the 4′-oxonucleoside was tested (FIG. 4). In side-by-side experiments, the compounds were dissolved in PBS (phosphate buffered solution, pH 7.4) at a concentration of 100 μM. A sample was removed from each solution 2, 20, and 90 hours after addition of the drug and the concentrations of 5-aza-T-dCyd or 5-aza-dCyd were determined by reverse phase HPLC.

tumors = test: Anti-tumor activity of 5-aza-T-dCyd in in vivo tumor model (FIG. 6); conditions: mice, q1dx9; tumor size decreased several days after end of dosing
Procedure: (§1) Preliminary in vivo evaluation of the anti-tumor activity of T-dCyd and 5-aza-T-dCyd in mice was also conducted (FIG. 5 and FIG. 6). T-dCyd was tested against human lung NCI-H23 (FIG. 5), and also in DLD-1 colon tumor xenografts (not shown). […] However the 9-day treatment schedule is a classical schedule for a cytotoxic anticancer agent. T-dCyd as a potential DNA hypomethylating agent has not been evaluated in tumor models.
Again, the schedule in this experiment (q1dx9) was also not designed based on the supposed mechanism of action of this agent, but was designed based on a classical cytotoxic nucleoside analog, as in the case of T-dCyd. […] This type of compound might best be used in combination with other chemotherapy as a maintenance therapy. Thus, in the clinic one could envision treatment first with cytotoxic agents to kill a large percentage of rapidly dividing tumor cells, followed by treatment with non-toxic doses of hypomethylating agents for longer time periods. In a similar vein one could envisage treatment with non-toxic DNA hypomethylating agents in chemoprevention settings.

[2] = system: KG1a human myeloid leukemia cells; test: Incorporation into DNA in KG1a human myeloid leukemia cells (FIG. 3); format: cell-based; conditions: 300 nM, 4 h of incubation
CEM leukemia cells = test: Incorporation of [5-3H]-labelled compound into DNA of CEM leukemia cells (FIG. 2); format: cell-based, human; conditions: 100 nM of [5-3H]-labelled compound
Procedure: (§2) In particular, FIG. 2 refers to an experiment where CEM leukemia cells were incubated with 100 nM of [5-^3H]T-dCyd, [5-^3H]dCyd, [5-^3H]araC or [5-^3H]T-araC and the incorporation of compound into the DNA was determined. […] In contrast much less araC (or T-araC) was incorporated into the DNA. Although araCTP (or T araCTP) are also good substrates for DNA polymerases, they are known to inhibit subsequent DNA chain elongation and thereby inhibit DNA replication. […] The concentration of T-dCyd or araC required to inhibit CEM cell growth by 50% after 72 hours of incubation was 2.2 or 0.006 μM, respectively.

CEM cell = test: Inhibition of CEM cell growth; format: cell-based, human; conditions: after 72 hours of incubation, read-out: concentration required to inhibit CEM cell growth by 50%
Procedure: as §2

CEM cells = test: Metabolism of dCyd or T-dCyd in CEM cells; format: in vitro ADME, human; conditions: 100 nM, 1 hour
Procedure: The metabolites that were produced in CEM cells treated with either [5-^3H]dCyd or [5-^3H]T-dCyd were also determined (Table 1). Cells were treated with 100 nM of each compound for 1 hour and the medium and cells were extracted to determine the major metabolites that were formed. The medium was analyzed by reverse phase HPLC to measure the parent compound, deaminated product, or [^3H]-water. The acid-soluble extract was analyzed by strong anion exchange HPLC to measure the intracellular concentration of nucleotide metabolites. The radioactivity in the acid-insoluble fraction represents the amount of compound that was incorporated into DNA. […] (Note: Because dCyd was labeled at the 5 position, the [^3H] was removed from the molecule by thymidylate synthase in the process of adding a methyl group to this position. Accordingly, there will be no radioactivity in thymidine nucleotides generated from [5-^3H]dCyd).

human lung NCI-H23 = test: Anti-tumor activity against human lung NCI-H23 tumor xenografts in mice (FIG. 5); format: in vivo
Procedure: as §1

[3] = Maximum tolerated dose (MTD) in mice; conditions: mouse, in vivo
Procedure: as §1

[4] = similar experiments, FIG. 1B or not shown
[5] = 1.3 mg/kg (MTD0.65), 9 day treatment, NCI-H23 tumors in mice

Row | SMILES | half-life at 100 μM [1] [h] | effect on DNMT1 protein level (DNMT1; [4]) | incorporation into DNA [2] | incorporation of compound into the DNA (CEM leukemia cells) | [3H] in DNA (CEM cells) | [3H] in parent compound (CEM cells) | other results
1 | Nc1ncn([C@H]2C[C@H](O)[C@@H](CO)S2)c(=O)n1 [5-aza-T-dCyd, 5-aza-4′-thio-2′-deoxycytidine] | 293 |  |  |  |  |  | effect on DNMT1 protein level (DNMT1; doses as low as 0.1 μM, exposed for 72 or 96 h, FIG. 1E): complete depletion of DNMT1; effect on DNMT1 protein level (DNMT1; similar exposures for as little as 48 h, FIG. 1C): completely depleted DNMT1; stability in PBS relative to 5-aza-dCyd [1]: 5 fold; tumor growth inhibition (tumors): substantially inhibited the growth of the tumors
2 | Nc1ncn([C@H]2C[C@H](O)[C@@H](CO)O2)c(=O)n1 [5-azadCyd, 5-aza-2′-deoxycytidine, reference compound] | 67 | depleting DNMT1 | only a moderate amount |  |  |  | 
3 | Nc1ccn([C@@H]2S[C@H](CO)[C@@H](O)[C@@H]2O)c(=O)n1 [T-araC, 4′-thio-arabinofuranosylcytosine, reference compound] |  | did not deplete DNMT1 |  | much less |  |  | 
4 | Nc1ccn([C@H]2C[C@H](O)[C@@H](CO)S2)c(=O)n1 [T-dCyd, 4′-thio-2′-deoxycytidine] |  |  | rapidly incorporated to very high levels | more T-dCyd was incorporated into the DNA than dCyd | 8% of total | 90% of total | effect on DNMT1 protein level (DNMT1; 72 h at the 3 μM dose, FIG. 1D): complete depletion of DNMT1; effect on DNMT1 protein level (DNMT1; 72 hour exposure at low non-toxic doses, FIG. 1A): capable of reducing DNMT1; effect on DNMT1 protein level (DNMT1; 96 h at the 1 and 3 μM doses, FIG. 1D): complete depletion of DNMT1; IC50 (CEM cell; Homo sapiens, CCRF-CEM): 2.2 µM; radioactivity recovered as water in the medium, T-dUrd in the medium, or T-dUMP in the acid-soluble pool (CEM cells): none; in vivo anti-tumor activity (human lung NCI-H23; 0.9 mg/kg (MTD0.45) and 0.6 mg/kg (MTD0.3), 9 day treatment schedule): some encouraging in vivo activity; complete cures (human lung NCI-H23; [5]): 2/6; tumor growth inhibition (human lung NCI-H23; [5]): substantial growth inhibition; MTD at 9 day [3]: 2 mg/kg
5 | Nc1ccn([C@@H]2O[C@H](CO)[C@@H](O)[C@@H]2O)c(=O)n1 [araC, arabinofuranosylcytosine, reference compound] |  | did not deplete DNMT1 |  | much less |  |  | IC50 (CEM cell): 0.006 µM
6 | Nc1ccn([C@H]2C[C@H](O)[C@@H](CO)O2)c(=O)n1 [dCyd, 2′-deoxycytidine, reference compound] |  |  |  |  | 3% of total | 38% of total | 
